Laboratory results published in PubChem BioAssay AID2060615 (Molecular Pharmacology Branch, DTP, NCI, 2025).
“And” between values parts separate entries of the source, which are not always exact repeats. Equal values may be shown once.

Test system: 496974-208-R-J2-PDC complex spheroids, growth % test/control
Experiment: Anticancer human tumor 496974-208-R-J2-PDC patient-derived pancreatic carcinoma cell line growth inhibition [CLK]
Settings: for viability, T/C: stronger effect = lower value; for IC50: curve of compound
Excerpt: A high-throughput screen of multi-cell type tumor spheroids was designed to identify active combinations of […] and targeted small molecules. Complex spheroids include a stromal component modeled by human endothelial cells (HUVEC) and fibroblasts modeled by human mesenchymal stem cells (MSCs). The concentration ranges selected for each drug and investigational agent were based upon clinically achievable concentrations if the clinical Cmax of the agent was known.
Compounds. The drugs and investigational agents: cirtuvivint (SM08502; NSC835563), CC-671 (NSC850746), vemurafenib (NSC761431), tapotoclax (NSC804041), sotorasib (NSC818433), adagrasib (NSC831453), MRTX-1133 (NSC836407), BAY2416964 (NSC825713), copanlisib (NSC816437), inavolisib (NSC800729), abemaciclib (NSC768073), osimertinib (NSC779217), entinostat (NSC756642), eltanexor (KPT-8602, NSC794443), venetoclax (NSC766270), ceralasertib (NSC777638), bortezomib (NSC756655), olaparib (NSC753686), talazoparib (NSC767125), alisertib (NSC759677), peposertib (NSC802822), gemcitabine (NSC613327), 5-fluorouracil (NSC19893), SN-38 (NSC673596), oxaliplatin (NSC266046), paclitaxel (NSC125973), and doxorubicin (NSC123127), were obtained from the National Cancer Institute (NCI) Developmental Therapeutics Program Chemical Repository. The FDA-approved anticancer drug set is available from the Developmental Therapeutics Program at https://dtp.cancer.gov/organization/dscb/obtaining/available plates.htm. […] The stock solutions were prepared in dimethyl sulfoxide (DMSO, Sigma-Aldrich, St. Louis, MO, cat. D2650), except for the platinum complexes which were prepared in saline (Quality Biological, Gaithersburg, MD, cat. 114-055-101), at 800-fold the tested concentration and stored at -70 degrees C prior to their use. All drugs and investigational agents were tested over a range starting from a high concentration at or near the clinical Cmax and decreasing in half-log increments. If the clinical Cmax for an agent had not been determined, the highest concentration tested was 10 microM.
Cell Culture. All cells were maintained in an incubator at 37 degrees C and 5% CO2 with 95% humidity. The PDC lines were cultured according to standard operating procedures established by the NCI PDMR. Briefly, all PDCs were thawed and cultured in Matrigel-coated flasks prepared with a working solution of 1X Ham's F-12 nutrient mix, without supplementation (Invitrogen, Waltham, MA, cat. 11765054), 100 U/mL penicillin-streptomycin (Invitrogen, cat. 15140122), and 2.5% Matrigel (Corning Inc., Corning, NY, cat. 354248) for the first three passages. The 947758-054-R-J2-PDC line was cultured in 6B/Colon 1A media, which includes advanced DMEM/F-12 (Thermo Fisher Scientific, cat. 12634028), 10 mM HEPES (Thermo Fisher Scientific, cat. 15630080), 1X GlutaMAX supplement (Thermo Fisher Scientific, cat. 35050061), 0.1 mg/mL primocin (InvivoGen, cat. ant-pm-2), 10% defined fetal bovine serum, heat inactivated (HyClone Laboratories Inc., cat. SH30070.03HI), 1.25 mM N-Acetyl-L-cysteine (Sigma-Aldrich, cat. A9165), 10 mM nicotinamide (Sigma-Aldrich, cat. N0636), 1X B-27 supplement (Thermo Fisher Scientific, cat. 17504044), 1X N-2 supplement (Thermo Fisher Scientific, cat. 17502048), and 10 microM Y-27632 dihydrochloride (Tocris Bioscience, cat. 1254). The 876862-298-R-J1-PDC was cultured in 6E media, which includes all 6B/Colon 1A media components plus 50% L-WRN conditioned media (ATCC, cat. CRL-3276), 50 ng/mL recombinant human EGF recombinant protein (hEGF; Thermo Fisher Scientific, cat. PHG0311), 10 ng/mL recombinant human fibroblast growth factor 10 (hGFG-10; PeproTech, cat. 100-26), 1 ng/mL recombinant human fibroblast growth factor 2 (hFGF-2; PeproTech, cat. 100-18B), and 1 µM prostaglandin E2 (PGE2; Tocris, cat. 2296). The 227483-062-R1-J1-PDC line was cultured in Panc media, containing all 6E components except hFGF-2, with the addition of 500 nM SB-431542 (Selleckchem, cat. S1067) and 10 nM gastrin (Tocris, cat. 3006). […]
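Further: spheroids exposed to the drugs for 7 days before readout.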
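Wherever viability, T/C is given: 100% = DMSO vehicle control wells.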

| IC50 | Structure (SMILES) | viability, T/C (compound 0.0316 µM) | viability, T/C (compound 0.1 µM) | viability, T/C (compound 0.316 µM) | viability, T/C (compound 1 µM) | viability, T/C (compound 3.16 µM) | viability, T/C (compound 10 µM) | viability, T/C (compound 0.000949 µM) | viability, T/C (compound 0.003 µM) | viability, T/C (compound 0.00949 µM) | viability, T/C (compound 0.03 µM) | viability, T/C (compound 0.0949 µM) | viability, T/C (compound 0.3 µM) | viability, T/C (compound 0.00316 µM) | viability, T/C (compound 0.01 µM) |
| --- | --- | --- | --- | --- | --- | --- | --- | --- | --- | --- | --- | --- | --- | --- | --- |
| 0.471 µM and 0.364 µM | C#Cc1c(F)ccc2cc(O)cc(-c3ncc4c(N5CC6CCC(C5)N6)nc(OCC56CCCN5CC(F)C6)nc4c3F)c12 (configuration not stated) | 63.5% and 68.8% | 57.4% and 58.6% | 48.7% and 48% | 48.6% and 46.5% | 44.9% and 50.8% | 38% and 43.1% |  |  |  |  |  |  |  |  |
| 5.48 µM and 5.56 µM | C=C(F)C(=O)N1CCN(c2nc(OCC3CCCN3C)nc3c2CCN(c2cccc4cccc(Cl)c24)C3)CC1CC#N (configuration not stated) | 111% and 105% | 108% and 95.4% | 97% and 89.5% | 95.8% and 87.1% | 93.5% and 98.2% | 2.37% and 3.13% |  |  |  |  |  |  |  |  |
| > 10 µM | C=CC(=O)N1CCN(c2nc(=O)n(-c3c(C)ccnc3C(C)C)c3nc(-c4c(O)cccc4F)c(F)cc23)C(C)C1 (configuration not stated) | 112% and 102% | 108% and 87.1% | 109% and 91.7% | 111% and 97.7% | 107% and 108% | 86.8% and 80.7% |  |  |  |  |  |  |  |  |
| > 0.3 µM | C=CC(=O)Nc1cc(Nc2nccc(-c3cn(C)c4ccccc34)n2)c(OC)cc1N(C)CCN(C)C |  |  |  |  |  |  | 102% and 103% | 99.3% and 105% | 86% and 93.1% | 85.4% and 94.9% | 98.1% and 88.5% | 70.9% and 70.3% |  |  |
| 0.00385 µM | CC(C)CC(NC(=O)C(Cc1ccccc1)NC(=O)c1cnccn1)B(O)O (configuration not stated) |  |  |  |  |  |  | 99.9% | 63.8% | 0.44% | 0.67% | 0.24% | 0.27% |  |  |
| 8.39 µM and > 10 µM | CC(CO)NC(=O)c1cc(-c2ccc(Cl)cc2)nn(-c2cnn(C)c2)c1=O (configuration not stated) | 106% and 99.5% | 105% and 97.1% | 96.2% and 100% | 85.5% and 96.2% | 91.6% and 91.4% | 42.6% and 52.9% |  |  |  |  |  |  |  |  |
| 0.195 µM and 0.18 µM | CC(Nc1ccc2c(c1)OCCn1cc(N3C(=O)OCC3C(F)F)nc1-2)C(N)=O (configuration not stated) | 89.2% and 89.5% | 65.6% and 63.4% | 39.2% and 36.6% | 18.8% and 22.9% | 13.1% and 14.9% | 7.32% and 10.9% |  |  |  |  |  |  |  |  |
| 8.67 µM and 8.19 µM | CC1(C)CCC(CN2CCN(c3ccc(C(=O)NS(=O)(=O)c4ccc(NCC5CCOCC5)c([N+](=O)[O-])c4)c(Oc4cnc5[nH]ccc5c4)c3)CC2)=C(c2ccc(Cl)cc2)C1 | 115% and 95.7% | 89% and 88.2% | 99% and 101% | 99.4% and 99.5% | 96.8% and 94.7% | 43.4% and 40.6% |  |  |  |  |  |  |  |  |
| 5.36 µM and 7.19 µM | CC1COCCN1c1cc(C2(S(C)(=N)=O)CC2)nc(-c2ccnc3[nH]ccc23)n1 (configuration not stated) | 119% and 107% | 105% and 97.9% | 85.5% and 91% | 94.4% and 89.3% | 57.5% and 62% | 36% and 44.6% |  |  |  |  |  |  |  |  |
| 7.38 µM and 6.35 µM | CCCS(=O)(=O)Nc1ccc(F)c(C(=O)c2c[nH]c3ncc(-c4ccc(Cl)cc4)cc23)c1F | 108% and 106% | 92.2% and 91.8% | 100% and 95.3% | 108% and 93.8% | 87.8% and 93.4% | 36.3% and 21.7% |  |  |  |  |  |  |  |  |
| > 1 µM | CCN1CCN(Cc2ccc(Nc3ncc(F)c(-c4cc(F)c5nc(C)n(C(C)C)c5c4)n3)nc2)CC1 | 87.1% and 90.3% | 82.4% and 97.8% | 90.3% and 92.8% | 96.5% and 103% |  |  |  |  |  |  |  |  | 102% and 112% | 93.9% and 90.8% |
